Measured values from ChEMBL document CHEMBL2424656, “Analogues of the Inhoffen-Lythgoe diol with anti-proliferative activity” (Bioorg Med Chem Lett, 2013).
Activity calls are given as the source filed them. The calls are words filed in the database; no cut-off is given here.

Key:
HT-29 [1] = test: Growth inhibition of human HT-29 cells after 72 hrs by MTS-PMS assay; format: functional; details: HT-29, 72 h
[2] = Growth inhibition of human U87MG cells after 72 hrs by MTS-PMS assay; format: functional, U-87MG ATCC; details: U-87 MG
[3] = biological target: T1, Vitamin D3 receptor (Mus musculus) (UniProt P48281); test: Activation of VDR in mouse C3H10T1/2 cells assessed as upregulation of CYP24A1 mRNA expression at 5 uM after 24 hrs by RT-PCR analysis relative to DMSO-treated control; format: cell-based; details: C3H 10T1/2
T1 sequence (whole entry): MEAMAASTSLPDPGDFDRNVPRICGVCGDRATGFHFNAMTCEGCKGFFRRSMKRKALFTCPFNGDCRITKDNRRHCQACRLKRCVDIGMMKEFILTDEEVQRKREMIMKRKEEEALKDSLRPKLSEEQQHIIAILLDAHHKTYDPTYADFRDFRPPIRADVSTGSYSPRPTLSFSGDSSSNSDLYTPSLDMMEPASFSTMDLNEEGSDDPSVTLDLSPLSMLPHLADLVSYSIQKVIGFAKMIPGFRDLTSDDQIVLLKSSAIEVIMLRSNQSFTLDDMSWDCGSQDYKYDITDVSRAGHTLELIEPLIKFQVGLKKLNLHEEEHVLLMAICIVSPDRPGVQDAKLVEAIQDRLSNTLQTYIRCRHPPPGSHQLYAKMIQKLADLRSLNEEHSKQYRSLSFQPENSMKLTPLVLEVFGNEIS

[4] = […] of hedgehog signaling in mouse C3H10T1/2 cells assessed as downregulation of GLI1 mRNA expression at 5 uM after 24 hrs by RT-PCR analysis in presence of oxysterol; format: cell-based; details: C3H 10T1/2
[5] = biological target: T1, Vitamin D3 receptor (Mus musculus); test: Activation of VDR in mouse C3H10T1/2 cells assessed as upregulation of CYP24A1 mRNA expression at 1 to 10 uM after 24 hrs by RT-PCR analysis; format: cell-based; details: C3H 10T1/2
[6] = […] of hedgehog signaling in mouse C3H10T1/2 cells assessed as effect on GLI1 mRNA expression at 1 to 10 uM after 24 hrs by RT-PCR analysis in presence of oxysterol; format: cell-based; details: C3H 10T1/2
[7] = Cytotoxicity against mouse C3H10T1/2 cells at 10 uM after 24 hrs; format: cell-based; details: c3h 10t1/2, 24 h
HT-29 [8] = test: Ratio of GI50 for human U87MG cells to GI50 for human HT-29 cells; format: functional

Row | SMILES | GI50 (HT-29 [1]) | GI50 [2] | other results
1 | C[C@H](CNC(=O)C1CCCCC1)[C@H]1CC[C@H]2[C@@H](O)CCC[C@]12C | 84.1 µM | > 100 µM | –
2 | COc1ccccc1C(=O)OC[C@@H](C)[C@H]1CC[C@H]2[C@@H](O)CCC[C@]12C | 35.7 µM | 56 µM | –
3 | C[C@H](COC(=O)c1cccc2ccccc12)[C@H]1CC[C@H]2[C@@H](O)CCC[C@]12C | 35.3 µM | 39.2 µM | –
4 | C[C@H](COC(=O)c1ccco1)[C@H]1CC[C@H]2[C@@H](O)CCC[C@]12C | > 100 µM | 79.1 µM | –
5 | C[C@H](COC(=O)c1ccccc1Cl)[C@H]1CC[C@H]2[C@@H](O)CCC[C@]12C | 14.4 µM | 46.8 µM | –
6 | C=C1CC[C@H](O)C/C1=C/C=C1\CCC[C@]2(C)[C@@H]([C@H](C)CCCC(C)C)CC[C@@H]12 [CHOLECALCIFEROL] | 53.8 µM | – | fold change (FC) [3]: 8000; Activity [4]: Active
7 | C[C@H](COC(=O)c1ccc2ccccc2c1)[C@H]1CC[C@H]2[C@@H](O)CCC[C@]12C | 19.8 µM | 51.3 µM | –
8 | C[C@H](COC(=O)C1CCCC1)[C@H]1CC[C@H]2[C@@H](O)CCC[C@]12C | 22.1 µM | 21.7 µM | –
9 | C[C@H](COC(=O)c1ccncc1)[C@H]1CC[C@H]2[C@@H](O)CCC[C@]12C | > 100 µM | > 100 µM | –
10 | C[C@H](COC(=O)c1ccccc1O)[C@H]1CC[C@H]2[C@@H](O)CCC[C@]12C | 14.1 µM | 18.8 µM | Activity [5]: inactive; Activity [6]: inactive; Activity [7]: Toxic
11 | C[C@H](COC(=O)c1cccc(O)c1)[C@H]1CC[C@H]2[C@@H](O)CCC[C@]12C | 70.3 µM | 76.9 µM | –
12 | C[C@H](COC(=O)c1cccc(Cl)c1)[C@H]1CC[C@H]2[C@@H](O)CCC[C@]12C | 26.2 µM | 69 µM | –
13 | C[C@H](COC(=O)C1CC1)[C@H]1CC[C@H]2[C@@H](O)CCC[C@]12C | 82.6 µM | > 100 µM | –
14 | C[C@H](COC(=O)c1ccccc1)[C@H]1CC[C@H]2[C@@H](OC(=O)c3ccccc3)CCC[C@]12C | > 100 µM | > 100 µM | –
15 | C[C@H](COC(=O)C1CCC1)[C@H]1CC[C@H]2[C@@H](O)CCC[C@]12C | 27 µM | 27.1 µM | –
16 | C[C@H](COC(=O)c1ccccn1)[C@H]1CC[C@H]2[C@@H](O)CCC[C@]12C | > 100 µM | > 100 µM | –
17 | C[C@H](COC(=O)c1ccc(Cl)cc1)[C@H]1CC[C@H]2[C@@H](O)CCC[C@]12C | 15.9 µM | 31.4 µM | RatioGI50 (HT-29 [8]): 2
18 | C[C@H](COC(=O)C(C)(C)C)[C@H]1CC[C@H]2[C@@H](O)CCC[C@]12C | 11.9 µM | 17.1 µM | Activity [5]: inactive; Activity [6]: inactive
19 | C[C@H](COC(=O)c1ccc(O)cc1)[C@H]1CC[C@H]2[C@@H](O)CCC[C@]12C | 41 µM | 67 µM | –
20 | COc1ccc(C(=O)OC[C@@H](C)[C@H]2CC[C@H]3[C@@H](O)CCC[C@]23C)cc1 | 39.8 µM | 33.1 µM | –
21 | C[C@H](CNC(=O)c1ccc(Cl)cc1)[C@H]1CC[C@H]2[C@@H](O)CCC[C@]12C | 32.3 µM | 42.9 µM | –
22 | C[C@H](COC(=O)c1ccccc1)[C@H]1CC[C@H]2[C@@H](O)CCC[C@]12C | 22.6 µM | 24.6 µM | Activity [5]: inactive
23 | COc1cccc(C(=O)OC[C@@H](C)[C@H]2CC[C@H]3[C@@H](O)CCC[C@]23C)c1 | 23.7 µM | 15.9 µM | –
24 | C[C@H](COC(=O)C1CCCCC1)[C@H]1CC[C@H]2[C@@H](O)CCC[C@]12C | 15.2 µM | 11.2 µM | Activity [5]: inactive; Activity [6]: inactive
25 | C[C@H](CNC(=O)c1ccccc1O)[C@H]1CC[C@H]2[C@@H](O)CCC[C@]12C | 68.2 µM | > 100 µM | –
26 | CC(C)CC(=O)OC[C@@H](C)[C@H]1CC[C@H]2[C@@H](O)CCC[C@]12C | 47.5 µM | 56 µM | –
27 | C[C@H](CN)[C@H]1CC[C@H]2[C@@H](O)CCC[C@]12C | > 100 µM | > 100 µM | –
28 | C[C@H](COC(=O)c1cccnc1)[C@H]1CC[C@H]2[C@@H](O)CCC[C@]12C | 95.2 µM | > 100 µM | –
